Experimental data reported in patent US20140050668A1, “VISUALIZATION OF LIPID METABOLISM” (UNIVERSITAETSKLINIKUM HAMBURG-EPPENDORF, priority 2011, published 2014).
Entries after “also recorded” stand apart in the source; their conditions may differ.

What was measured:
LPL [1] = molecular target: T1, LPL (Mus musculus, UniProt P11152); assay: Organ distribution of 59Fe-SPIO- and 3H-triolein-labeled TRL after pre-injection of THL or heparin; type: in vivo; settings: cold FVB mice; for uptake of 3H-triolein into BAT / uptake of 59Fe-SPIO into BAT: pre-injected 1 min before radiolabeled TRL i.v., organs 15 min after injection
T1 construct: from tissue; host or cells: living wild-type FVB mice (in vivo; endothelium of BAT, heart and other lipid-consuming tissues)
T1 sequence (P11152 28-474): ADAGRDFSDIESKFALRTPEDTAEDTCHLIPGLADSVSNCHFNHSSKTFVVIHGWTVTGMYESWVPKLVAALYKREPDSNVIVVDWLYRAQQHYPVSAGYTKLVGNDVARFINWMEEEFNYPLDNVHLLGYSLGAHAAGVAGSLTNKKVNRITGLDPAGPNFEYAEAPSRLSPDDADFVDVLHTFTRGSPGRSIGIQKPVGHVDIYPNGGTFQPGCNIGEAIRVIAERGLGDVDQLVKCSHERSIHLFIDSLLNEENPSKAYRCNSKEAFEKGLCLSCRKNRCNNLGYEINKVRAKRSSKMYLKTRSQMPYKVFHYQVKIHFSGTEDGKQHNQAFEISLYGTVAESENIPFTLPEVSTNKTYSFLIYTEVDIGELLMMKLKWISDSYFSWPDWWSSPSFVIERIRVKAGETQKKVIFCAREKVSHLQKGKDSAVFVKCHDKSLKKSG
Experimental: (§1) Turnover studies and organ distribution. For turnover studies, anesthetized mice were tail vein injected with 200 μl radiolabeled TRL. Lipoprotein turnover was determined from 10 μl plasma 0.5, 1, 2, 5 and 15 min after injection. After 15 min, blood was removed by cardiac puncture, the right atrium was opened, and the carcass was perfused through the left ventricle with PBS containing 50 U mL^1 heparin. Then, organs were harvested and weighed. For measurement of radioactivity, organs were solubilized in Solvable (PerkinElmer, Boston, USA, 0.1 mL per 10 mg organ), 200 μL were counted in scintillation fluid and TRL uptake was calculated as c.p.m. per mg organ. Oral fat tolerance tests were performed by gavage of 100 μL olive oil with [9,10-^3H(N)]-triolein (370 KBq per mouse). To measure lipoprotein production triton WR-1339 (Tyloxapol from Sigma; 0.5 mg per g body weight as 10% solution in PBS) was injected into the tail vein. Plasma was collected at indicated time points. For the measurement of hepatic production 1(3)-^3H glycerol (125 KBq per mouse) was injected prior to triton WR-1339. Lipids were extracted from plasma samples and ^3H-glycerol incorporated into triglycerides was measured as described above. For chylomicron production mice received ^3H-triolein in olive oil by gavage as described above directly after triton WR-1339 injection. Intestine-derived radioactivity in plasma was measured as described above. For manipulation of LPL function, THL (Roche, 12.5 mg ml^−1 DMSO) was diluted to 1.25 mg ml^−1 in 10% DMSO in PBS. Mice received 200 μL of either 0.25 mg THL, 50 U heparin (ratiopharm) or 10% DMSO in PBS (mock). After 1 min ^59Fe-SPIO- and ^3H-triolein-labeled TRL were injected and plasma clearance and organ uptake were determined as described above. For postprandial studies mice were i.p. injected with 0.25 mg THL or mock solution prior to gavage of 200 μL olive oil. Blood was collected at indicated time points and plasma triglyceride levels were determined.

LPL [2] = molecular target: T1, LPL; assay: Oral fat tolerance test in cold mice pre-treated with THL; type: in vivo; settings: cold FVB mice; i.p. pre-treatment; versus mock-treated cold mice (no increase)
Experimental: as §1, with “For chylomicron production mice received ^3H-triolein in olive oil by gavage as described above directly after triton WR-1339 injection.” left out, “For manipulation of LPL function, THL (Roche, 12.5 mg ml^−1 DMSO) was diluted to 1.25 mg ml^−1 in 10% DMSO in PBS. Mice received 200 μL of either 0.25 mg THL, 50 U heparin (ratiopharm) or 10% DMSO in PBS (mock). After 1 min ^59Fe-SPIO- and ^3H-triolein-labeled TRL were injected and plasma clearance and organ uptake were determined as described above. For postprandial studies mice were i.p. injected with 0.25 mg THL or mock solution prior to gavage of 200 μL olive oil.” left out

LPL [3] = molecular target: T1, LPL; assay: MRI of SPIO-nanosome uptake after pre-injection of THL, heparin or chylomicrons; type: in vivo, mice; settings: for uptake of SPIO-nanosomes into BAT, T2*-weighted MRI: cold-exposed FVB mice, pre-injection 1 min before SPIO-nanosomes
Experimental: Animals and diets. All experimental procedures were performed with approval from the animal care committees responsible for the University Medical Center Hamburg-Eppendorf. Animals were housed at 22° C. with ad libitum access to standard laboratory chow diet. We used male and female age-matched (16-22 weeks) FVB wildtype mice which were fasted 24 h or 4 h prior to the experiment. Fasting (22° C.) and cold exposure (4° C.) was performed in single cages for 24 h unless indicated otherwise.
For manipulation of LPL function, THL (Roche, 12.5 mg ml^−1 DMSO) was diluted to 1.25 mg ml^−1 in 10% DMSO in PBS. Mice received 200 μL of either 0.25 mg THL, 50 U heparin (ratiopharm) or PBS (mock). After 1 min, SPIO-nanosomes were injected, and plasma clearance and organ uptake were determined by dynamic MRI.
In vivo imaging studies. MRI was performed as described before^14. Briefly, all static and dynamic MRI measurements were performed with a clinical 3 Tesla MR scanner (Philips Medical Systems, Netherlands) equipped with a custom-made small animal solenoid coil. The dynamic measurements were based on a gradient-echo sequence (Supplementary table 3). The applied sequence is highly sensitive to susceptibility effects caused by local magnetic field inhomogeneities caused by SPIO-TRL. DICOM data were processed with ImageJ (http://rsbweb.nih.gov/ij/). SPIO-nanosomes were injected via a tail vein catheter.

BAT = assay: Intravital confocal imaging of fluorescent-labeled TRL in BAT; type: in vivo, mice
Experimental: In vivo imaging studies. MRI was performed as described before. Briefly, all static and dynamic MRI measurements were performed with a clinical 3 Tesla MR scanner (Philips Medical Systems, Netherlands) equipped with a custom-made small animal solenoid coil. The dynamic measurements were based on a gradient-echo sequence (Supplementary table 3). The applied sequence is highly sensitive to susceptibility effects caused by local magnetic field inhomogeneities caused by SPIO-TRL. DICOM data were processed with Image (http://rsbweb.nih.gov/ij/). For cryo electron microscopy, SPIO-TRL were intravenously injected into control or cold wild-type FVB mice. After 30 min mice were sacrificed, BAT biopsies were taken and processed for transmission electron microscopy (TEM) as described. Micrographs were obtained with a FBI Eagle 4k CCD camera and a Technal 20 TEM operated at 200 kV. For environmental scanning electron microscopy studies of BAT anaesthetized mice were perfused with PBS-Heparin as above and organs were fixed with 2.5% glutaraldehyde in PBS, washed, and postfixed for 30 min with 1% […] in PBS. For intravital microscopy interscapular BAT was dissected in anaesthetized mice and visualized by a confocal microscope equipped with a resonant scanner (Nikon AIR). QD-labeled TRL and fluorescent probes were injected via a tail vein catheter and 15 or 30 confocal images per second were recorded. The acquired data sets were aligned to reduce object movements due to mouse breathing and denoised with a Savitzky-Golay filter in Nikon NIS Elements AR 3.10. Labeling, animations and quicktime-export were done with Adobe After Effects CS4.

uptake of 3H-triolein into BAT (LPL [1]) | uptake of 59Fe-SPIO into BAT (LPL [1]) | uptake of TRL into the heart (LPL [1]; pre-injected before radiolabeled TRL) | uptake of SPIO-nanosomes into the heart (myocard), T2*-weighted MRI (LPL [3]; 24 h fasted FVB mice, inhibitor injected 1 min before SPIO-nanosomes) | uptake of SPIO-nanosomes into BAT, T2*-weighted MRI (LPL [3]) | binding of a second bolus of TRL (BAT; time-delayed heparin injection) | Compound | plasma triglycerides after lipid gavage (LPL [2]) | fluorescent-labeled TRL initially bound to the vascular wall (BAT; heparin after initial TRL binding) | already internalized TRL particles (BAT; time-delayed heparin injection)
abolished | abolished | inhibited | not enhanced; also recorded: abolished | not enhanced; also recorded: abolished | – | CCCCCCCCCCC[C@@H](C[C@@H]1OC(=O)[C@H]1CCCCCC)OC(=O)[C@H](CC(C)C)NC=O [THL, Tetrahydrolipstatin] | significant postprandial triglyceride response | – | –
blocked | blocked | – | – | blocked | blocked | heparin | – | released | no influence
